Several values for one entry are separate records, joined by “and”; a condition that tells them apart may be missing. Identical values can stand only once.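 These data come from cells grown in 96-well plates and exposed to compound for 48 hours at five concentrations. GI50 marks 50% less growth.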 Activity calls are given as the source filed them. Rule as the data show it: active = GI50 up to about 1.1 µM and inactive = higher.
Key:
Assay in all cases: NCI anticancer screen, dose series, 48 h
786-0 = system: 786-0
A549 = system: A549
ACHN = system: ACHN
CAKI-1 = system: CAKI-1
CCRF-CEM = system: CCRF-CEM
COLO 205 = system: COLO 205
DU-145 = system: DU-145
EKVX = system: EKVX
HCT-116 = system: HCT-116
HCT-15 = system: HCT-15
HL-60 = system: HL-60
HOP-62 = system: HOP-62
HOP-92 = system: HOP-92
HT-29 = system: HT-29
Hs-578T = system: Hs-578T
IGROV-1 = system: IGROV-1
K562 = system: K562
KM12 = system: KM12
LOX IMVI = system: LOX IMVI
M14 = system: M14
MCF7 = system: MCF7
MDA-MB-231 = system: MDA-MB-231
MDA-MB-435 = system: MDA-MB-435
MDA-N = system: MDA-N
MOLT-4 = system: MOLT-4
Malme-3M = system: Malme-3M
NCI-H226 = system: NCI-H226
NCI-H23 = system: NCI-H23
NCI-H460 = system: NCI-H460
NCI-H522 = system: NCI-H522
NCI/ADR-RES = system: NCI/ADR-RES
OVCAR-3 = system: OVCAR-3
OVCAR-4 = system: OVCAR-4
OVCAR-5 = system: OVCAR-5
OVCAR-8 = system: OVCAR-8
PC-3 = system: PC-3
RPMI-8226 = system: RPMI-8226
RXF 393 = system: RXF 393
SF-268 = system: SF-268
SF-295 = system: SF-295
SF-539 = system: SF-539
SK-MEL-28 = system: SK-MEL-28
SK-MEL-2 = system: SK-MEL-2
SK-MEL-5 = system: SK-MEL-5
SK-OV-3 = system: SK-OV-3
SN12C = system: SN12C
SNB-19 = system: SNB-19
SNB-75 = system: SNB-75
SR = system: SR
SW-620 = system: SW-620
TK-10 = system: TK-10
U-251 = system: U-251
UACC-257 = system: UACC-257
UACC-62 = system: UACC-62
UO-31 = system: UO-31
T47D = system: T47D
A498 = system: A498
HCC 2998 = system: HCC 2998

Measured: GI50

Nc1ncc2c(n1)-c1ccccc1OC2N1CCOCC1 (centres undefined)
inactive: 786-0 > 100 µM | A549 > 100 µM | ACHN > 100 µM | CAKI-1 > 100 µM | CCRF-CEM > 100 µM | COLO 205 > 100 µM | DU-145 > 100 µM | EKVX 85.9 µM | HCT-116 > 100 µM | HL-60 44.5 µM | HOP-62 > 100 µM | HOP-92 > 100 µM | HT-29 > 100 µM | Hs-578T > 100 µM | IGROV-1 > 100 µM | K562 > 100 µM | KM12 > 100 µM | LOX IMVI > 100 µM | M14 > 100 µM | MCF7 > 100 µM | MDA-MB-231 > 100 µM | MDA-MB-435 > 100 µM | MDA-N > 100 µM | MOLT-4 > 100 µM | Malme-3M > 100 µM | NCI-H226 > 100 µM | NCI-H23 > 100 µM | NCI-H460 > 100 µM | NCI-H522 45.2 µM | NCI/ADR-RES > 100 µM | OVCAR-3 > 100 µM | OVCAR-4 > 100 µM | OVCAR-5 > 100 µM | OVCAR-8 > 100 µM | PC-3 > 100 µM | RPMI-8226 > 100 µM | RXF 393 > 100 µM | SF-268 > 100 µM | SF-295 > 100 µM | SF-539 > 100 µM | SK-MEL-28 > 100 µM | SK-MEL-2 > 100 µM | SK-MEL-5 > 100 µM | SK-OV-3 > 100 µM | SN12C > 100 µM | SNB-19 > 100 µM | SNB-75 59.7 µM | SR 52.7 µM | SW-620 > 100 µM | TK-10 > 100 µM | U-251 > 100 µM | UACC-257 > 100 µM | UACC-62 > 100 µM | UO-31 > 100 µM
> 100 µM: HCT-15

Nc1nc(Cl)c(/N=N/c2ccc(Cl)cc2)c(NCC2(CO)CC(OCc3ccccc3)C2)n1 (centres undefined)
inactive: ACHN 1.53 µM and 1.73 µM | CAKI-1 3.31 µM and 1.82 µM | HL-60 3.63 µM and 3.48 µM | K562 4.98 µM and 3.03 µM | Malme-3M 1.62 µM | SNB-75 6.71 µM | T47D 3.67 µM and 3.15 µM | UO-31 2.92 µM and 2.08 µM

O=C(C1=CCC2(CC1)OCCO2)N(Cc1ccccc1)c1ccccc1I
inactive: 786-0 18.8 µM | A498 22.5 µM | A549 28 µM | ACHN 20.8 µM | CAKI-1 24.5 µM | COLO 205 17.7 µM | DU-145 32.8 µM | EKVX 16.4 µM | HCC 2998 16.8 µM | HCT-116 14.8 µM | HL-60 18 µM | HOP-62 22.4 µM | HOP-92 16.1 µM | HT-29 17.9 µM | K562 43.2 µM | KM12 14.1 µM | LOX IMVI 21.2 µM | M14 16.9 µM | MCF7 26.4 µM | MDA-MB-231 20 µM | MDA-MB-435 19.7 µM | MDA-N 29 µM | MOLT-4 63.8 µM | NCI-H226 19.9 µM | NCI-H23 19.7 µM | NCI-H460 18.9 µM | NCI/ADR-RES 15 µM | OVCAR-3 21.3 µM | OVCAR-4 14.9 µM | OVCAR-5 18.1 µM | OVCAR-8 16.4 µM | PC-3 26.3 µM | RPMI-8226 24.4 µM | RXF 393 28.3 µM | SF-268 13.4 µM | SF-295 21.4 µM | SK-MEL-28 21.2 µM | SK-MEL-2 21.2 µM | SK-MEL-5 13.9 µM | SK-OV-3 32.1 µM | SN12C 24 µM | SNB-19 18.9 µM | SNB-75 14.1 µM | SR 12.8 µM | SW-620 29.7 µM | T47D 18.4 µM | TK-10 21.5 µM | U-251 19.9 µM | UACC-257 19.2 µM | UACC-62 13.5 µM | UO-31 17.6 µM
23 µM: HCT-15
active: Hs-578T 0.181 µM

COc1cc(OC)c(OC)cc1/C=C\c1nccc2ccccc12
inactive: A549 25.6 µM | CAKI-1 22.5 µM | CCRF-CEM 76.2 µM | COLO 205 22.5 µM | DU-145 16.3 µM | EKVX 22.2 µM | HCT-116 18.1 µM | HL-60 18.7 µM | HOP-92 15.3 µM | Hs-578T 28.3 µM | IGROV-1 28.5 µM | K562 28.9 µM | KM12 15.1 µM | M14 16.7 µM | MDA-N > 10 µM | MOLT-4 16.1 µM | Malme-3M 33 µM | NCI-H23 23.4 µM | NCI/ADR-RES 31.2 µM | OVCAR-4 29.1 µM | OVCAR-5 29.3 µM | OVCAR-8 23.2 µM | PC-3 27.8 µM | RPMI-8226 18.7 µM | RXF 393 18.7 µM | SF-268 23.3 µM | SF-295 24 µM | SK-MEL-28 29.3 µM | SK-MEL-5 15.2 µM | SK-OV-3 32.8 µM | SNB-19 18.5 µM | SNB-75 23.9 µM | SR 20.9 µM | SW-620 26.9 µM | T47D 24.2 µM | TK-10 27.8 µM | U-251 24.9 µM | UO-31 16.8 µM
> 10 µM: HCT-15

CN1C/C(=C\c2ccccc2[N+](=O)[O-])C(=O)/C(=C/c2ccccc2[N+](=O)[O-])C1
active: 786-0 0.277 µM | COLO 205 0.25 µM | HCC 2998 1.01 µM | HCT-116 0.195 µM | HL-60 0.112 µM | HOP-92 0.836 µM | IGROV-1 0.782 µM | MCF7 0.348 µM | MOLT-4 0.238 µM | NCI/ADR-RES 1.03 µM | SK-MEL-5 0.902 µM | SW-620 0.201 µM | UACC-62 0.771 µM | UO-31 0.303 µM
inactive: A498 2.17 µM | A549 3.55 µM | DU-145 2.2 µM | HOP-62 2.48 µM | KM12 1.99 µM | NCI-H226 5.05 µM | NCI-H460 1.79 µM | PC-3 1.23 µM | SK-MEL-2 2.11 µM | SK-OV-3 3.02 µM | SNB-19 4.26 µM | SNB-75 2.21 µM | TK-10 1.17 µM | U-251 1.19 µM
0.262 µM: HCT-15
